Assay results published in PubChem BioAssay (NCI).
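Each compound was tested at five concentrations against cells in 96-well plates for 48 hours. The concentration for full growth arrest is given as TGI.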

Columns and labels:
Experiment in all cases: NCI anticancer screen, dose series, 48 h
M14 melanoma = system: M14 melanoma
DMS 273 small cell lung = system: DMS 273 small cell lung
SR leukemia = system: SR leukemia
HOP-62 NSCLC = system: HOP-62 NSCLC
OVCAR-8 ovarian = system: OVCAR-8 ovarian
CCRF-CEM leukemia = system: CCRF-CEM leukemia
MOLT-4 leukemia = system: MOLT-4 leukemia
SNB-19 CNS = system: SNB-19 CNS
HCT-116 colon = system: HCT-116 colon
HCT-15 colon = system: HCT-15 colon
K-562 leukemia = system: K-562 leukemia
DMS 114 small cell lung = system: DMS 114 small cell lung
XF 498 CNS = system: XF 498 CNS
SK-MEL-2 melanoma = system: SK-MEL-2 melanoma
OVCAR-3 ovarian = system: OVCAR-3 ovarian
U251 CNS = system: U251 CNS
786-0 renal = system: 786-0 renal
EKVX NSCLC = system: EKVX NSCLC
LXFL 529 NSCLC = system: LXFL 529 NSCLC
COLO 205 colon = system: COLO 205 colon
SK-MEL-28 melanoma = system: SK-MEL-28 melanoma
ACHN renal = system: ACHN renal
HCC-2998 colon = system: HCC-2998 colon
A549 NSCLC = system: A549 NSCLC
IGROV1 ovarian = system: IGROV1 ovarian
SF-539 CNS = system: SF-539 CNS
UACC-257 melanoma = system: UACC-257 melanoma
SK-MEL-5 melanoma = system: SK-MEL-5 melanoma
M19-MEL melanoma = system: M19-MEL melanoma
NCI-H460 lung = system: NCI-H460 lung
KM12 colon = system: KM12 colon
DLD-1 colon = system: DLD-1 colon
SK-OV-3 ovarian = system: SK-OV-3 ovarian
UACC-62 melanoma = system: UACC-62 melanoma
NCI-H226 lung = system: NCI-H226 lung
OVCAR-4 ovarian = system: OVCAR-4 ovarian
OVCAR-5 ovarian = system: OVCAR-5 ovarian
HT29 colon = system: HT29 colon
NCI-H23 lung = system: NCI-H23 lung
KM20L2 colon = system: KM20L2 colon
HOP-18 NSCLC = system: HOP-18 NSCLC
SW-620 colon = system: SW-620 colon
CAKI-1 renal = system: CAKI-1 renal
SF-295 CNS = system: SF-295 CNS
SN12C renal = system: SN12C renal
UO-31 renal = system: UO-31 renal
RPMI-8226 leukemia = system: RPMI-8226 leukemia
SNB-75 CNS = system: SNB-75 CNS
RXF 393 renal = system: RXF 393 renal
SNB-78 CNS = system: SNB-78 CNS
TK-10 renal = system: TK-10 renal
NCI-H522 lung = system: NCI-H522 lung
SF-268 CNS = system: SF-268 CNS
A498 renal = system: A498 renal
HL-60(TB) leukemia = system: HL-60(TB) leukemia
HOP-92 NSCLC = system: HOP-92 NSCLC
MALME-3M melanoma = system: MALME-3M melanoma
LOX IMVI melanoma = system: LOX IMVI melanoma

CC(=O)CC(=O)Nc1ccccc1[N+](=O)[O-]
TGI (M14 melanoma): > 100 µM
TGI (DMS 273 small cell lung): > 100 µM
TGI (SR leukemia): > 100 µM
TGI (HOP-62 NSCLC): > 100 µM
TGI (OVCAR-8 ovarian): > 100 µM
TGI (CCRF-CEM leukemia): > 100 µM
TGI (MOLT-4 leukemia): > 100 µM
TGI (SNB-19 CNS): > 100 µM
TGI (HCT-116 colon): > 100 µM
TGI (HCT-15 colon): > 100 µM
TGI (K-562 leukemia): > 100 µM
TGI (DMS 114 small cell lung): > 100 µM
TGI (XF 498 CNS): > 100 µM
TGI (SK-MEL-2 melanoma): > 100 µM
TGI (OVCAR-3 ovarian): > 100 µM
TGI (U251 CNS): > 100 µM
TGI (786-0 renal): > 100 µM
TGI (EKVX NSCLC): > 100 µM
TGI (LXFL 529 NSCLC): > 100 µM
TGI (COLO 205 colon): > 100 µM
TGI (SK-MEL-28 melanoma): > 100 µM
TGI (ACHN renal): > 100 µM
TGI (HCC-2998 colon): > 100 µM
TGI (A549 NSCLC): > 100 µM
TGI (IGROV1 ovarian): > 100 µM
TGI (SF-539 CNS): > 100 µM
TGI (UACC-257 melanoma): > 100 µM
TGI (SK-MEL-5 melanoma): > 100 µM
TGI (M19-MEL melanoma): > 100 µM
TGI (NCI-H460 lung): > 100 µM
TGI (KM12 colon): > 100 µM
TGI (DLD-1 colon): > 100 µM
TGI (SK-OV-3 ovarian): > 100 µM
TGI (UACC-62 melanoma): > 100 µM
TGI (NCI-H226 lung): > 100 µM
TGI (OVCAR-4 ovarian): > 100 µM
TGI (OVCAR-5 ovarian): > 100 µM
TGI (HT29 colon): > 100 µM
TGI (NCI-H23 lung): > 100 µM
TGI (KM20L2 colon): > 100 µM
TGI (HOP-18 NSCLC): > 100 µM
TGI (SW-620 colon): > 100 µM
TGI (CAKI-1 renal): > 100 µM
TGI (SF-295 CNS): > 100 µM
TGI (SN12C renal): > 100 µM
TGI (UO-31 renal): > 100 µM
TGI (RPMI-8226 leukemia): > 100 µM
TGI (SNB-75 CNS): > 100 µM
TGI (RXF 393 renal): > 100 µM
TGI (SNB-78 CNS): > 100 µM
TGI (TK-10 renal): > 100 µM
TGI (NCI-H522 lung): > 100 µM
TGI (SF-268 CNS): > 100 µM
TGI (A498 renal): > 100 µM
TGI (HL-60(TB) leukemia): > 100 µM
TGI (HOP-92 NSCLC): > 100 µM
TGI (MALME-3M melanoma): > 100 µM

CC1(C(=O)Nc2ccc3cc4ccccc4cc3c2)CC2(C)CC(C)(C1)C(O)NC2=O (stereo not drawn)
TGI (M14 melanoma): > 100 µM
TGI (DMS 273 small cell lung): > 100 µM
TGI (SR leukemia): > 100 µM
TGI (HOP-62 NSCLC): > 100 µM
TGI (OVCAR-8 ovarian): > 100 µM
TGI (CCRF-CEM leukemia): > 100 µM
TGI (MOLT-4 leukemia): > 100 µM
TGI (HCT-116 colon): > 100 µM
TGI (HCT-15 colon): > 100 µM
TGI (K-562 leukemia): > 100 µM
TGI (DMS 114 small cell lung): > 100 µM
TGI (XF 498 CNS): > 100 µM
TGI (SK-MEL-2 melanoma): > 100 µM
TGI (OVCAR-3 ovarian): > 100 µM
TGI (U251 CNS): > 100 µM
TGI (786-0 renal): > 100 µM
TGI (EKVX NSCLC): > 100 µM
TGI (LXFL 529 NSCLC): > 100 µM
TGI (COLO 205 colon): > 100 µM
TGI (SK-MEL-28 melanoma): > 100 µM
TGI (ACHN renal): > 100 µM
TGI (HCC-2998 colon): > 100 µM
TGI (A549 NSCLC): > 100 µM
TGI (IGROV1 ovarian): > 100 µM
TGI (SF-539 CNS): > 100 µM
TGI (UACC-257 melanoma): > 100 µM
TGI (SK-MEL-5 melanoma): > 100 µM
TGI (LOX IMVI melanoma): > 100 µM
TGI (M19-MEL melanoma): > 100 µM
TGI (NCI-H460 lung): > 100 µM
TGI (KM12 colon): > 100 µM
TGI (DLD-1 colon): > 100 µM
TGI (SK-OV-3 ovarian): > 100 µM
TGI (UACC-62 melanoma): > 100 µM
TGI (NCI-H226 lung): > 100 µM
TGI (OVCAR-4 ovarian): > 100 µM
TGI (OVCAR-5 ovarian): > 100 µM
TGI (HT29 colon): > 100 µM
TGI (NCI-H23 lung): > 100 µM
TGI (KM20L2 colon): > 100 µM
TGI (HOP-18 NSCLC): > 100 µM
TGI (SW-620 colon): > 100 µM
TGI (CAKI-1 renal): > 100 µM
TGI (SF-295 CNS): > 100 µM
TGI (SN12C renal): > 100 µM
TGI (UO-31 renal): > 100 µM
TGI (RPMI-8226 leukemia): > 100 µM
TGI (SNB-75 CNS): > 100 µM
TGI (RXF 393 renal): > 100 µM
TGI (SNB-78 CNS): > 100 µM
TGI (TK-10 renal): > 100 µM
TGI (SF-268 CNS): > 100 µM
TGI (A498 renal): > 100 µM
TGI (HL-60(TB) leukemia): 85.8 µM
TGI (HOP-92 NSCLC): > 100 µM
TGI (MALME-3M melanoma): > 100 µM
